# “Also recorded” adds a separate entry of the source.
# Key:
# [1] = system: non-small-cell lung carcinoma (NCI-H460); experiment: SRB cell growth inhibition assay, NCI-H460; format: cell-based, human; conditions: 48 h incubation, mean ± SD
# Experimental: (§1) The antitumor potential of the di(hetero)arylamines 2a–2o was evaluated using the sulforhodamine B (SRB) assay to establish some structure–activity relationships. Four human tumor cell lines (acquired from Leibniz-Institut DSMZ) were used: gastric adenocarcinoma (AGS), colorectal adenocarcinoma (CaCo-2), breast adenocarcinoma (MCF7), and non-small-cell lung cancer (NCI-H460), as well as a non-tumor cell line from African green monkey kidney (Vero) to evaluate the toxicity of the compounds. Ellipticine was used as a positive control, and the results are presented in GI50 values (µM) (Table 2).
# (§2) Each cell line was prepared in 96-well plates, at the required density (1.0 × 10^4 cells/well) and incubated for 24 h to achieve cell attachment. The solutions of the compounds were applied and incubated for another 48 h. GI50 values (µM) corresponding to the compound concentration that inhibited 50% of cell growth were determined using the sulforhodamine B assay. Two separate tests were carried out for each compound, in duplicate, with the effects expressed as mean values and standard deviation (SD). Ellipticine was used as a positive control.
# breast carcinoma (MCF7) = experiment: SRB cell growth inhibition assay, MCF7; format: cell-based, human; conditions: MCF-7, SRB assay, 48 h incubation, mean ± SD
# Experimental: as §1, §2
# [2] = system: colorectal adenocarcinoma (CaCo-2); experiment: SRB cell growth inhibition assay, CaCo-2; format: cell-based, human; conditions: for GI50: CaCo-2, SRB assay, 48 h incubation, mean ± SD
# Experimental: as §1, §2
# [3] = SRB cell growth inhibition assay, non-tumor Vero cells (toxicity); format: cell-based; conditions: African green monkey, Vero cells (non-tumor kidney cell line), 48 h incubation, mean ± SD
# Experimental: as §1, §2
# [4] = system: gastric adenocarcinoma (AGS); experiment: SRB cell growth inhibition assay, AGS; format: cell-based, human; conditions: for GI50: AGS, SRB assay, 48 h incubation, mean ± SD
# Experimental: as §1, §2
# AGS cells [5] = experiment: Flow cytometric apoptosis detection (FITC Annexin V/PI); format: cell-based, human; conditions: at GI50 concentration, 72 h
# Experimental: Apoptosis induction was performed using the Fluorescein Isothiocyanate (FITC) Annexin V Apoptosis Kit (BD Biosciences, San Jose, CA, USA), and measured by flow cytometry for compounds 2b, 2f, and 2g (Figure 3). FITC Annexin V staining was used to determine the percentage of cells within a population that are actively undergoing apoptosis. […] Apoptosis detection was performed using the Fluorescein Isothiocyanate (FITC) Annexin V Apoptosis Kit (BD Biosciences, San Jose, CA, USA) and flow cytometry. FITC Annexin V staining is used to determine the percentage of cells within a population that are actively undergoing apoptosis. The cells were washed twice with PBS and resuspended cells in 1× Binding Buffer (10 mM HEPES/NaOH, pH 7.4, 140 mM NaCl, 2.5 mM CaCl2) at a concentration of 1 × 10^6 cells/mL. Following this, 100 μL of the solution (1 × 10^5 cells) was transferred to a 5 mL culture tube and 5 μL of FITC Annexin V (BD Biosciences, San Jose, CA, USA) and 5 μL of PI (BD Biosciences, San Jose, CA, USA) were added to each tube, and they were incubated in the dark, at room temperature, for 15 min. Finally, 400 μL of 1× Binding Buffer was added to each tube. Next, 30,000 cells were acquired using an Accuri C6 flow cytometer (BD Biosciences, San Jose, CA, USA), and the percentage of cell distribution was evaluated with Accuri C6 software (BD Biosciences, San Jose, CA, USA). Ellipticine was used as a positive control at its GI50 concentration for AGS cell line.
# AGS cells [6] = experiment: Flow cytometric cell cycle analysis (PI staining); format: cell-based, human; conditions: at GI50 concentration, 72 h, vs blank
# Experimental: This assay is based on the measurement of the DNA content in the PI-labeled nuclei. […] Cell cycle analysis was performed using propidium iodide (PI) staining and flow cytometry. This assay is established on the measurement of the DNA content of nuclei labeled with PI. Following this, the cells were staining according to the protocol PI/RNASE Solution (Immunostep, Spain, Salamanca). The harvested cells corresponding to 2 × 10^5 to 1 × 10^6 cells, were centrifuged for 5 min at 300g, and the supernatant was removed. The cells were fixed and added to 200 µL of 70% ethanol and left in the ethanol at 4 °C for 30 min. Following this, the cells were washed once in 2 mL phosphate-buffered saline (PBS) and centrifuged for 5 min at 300g and resuspended in 500 μL of PI solution (PI/RNASE) and incubated in the dark, at room temperature, for 15 min. Cell cycle phase distribution was evaluated using an Accuri C6 flow cytometer (BD Biosciences, San Jose, CA, USA). The DNA content of at least 20,000 cells was counted per sample, and the percentage of cells in different phases (G0/G1, S, and G2/M phases) of the cell cycle was evaluated using BD Accuri C6 software (BD Biosciences, San Jose, CA, USA). Ellipticine was used as a positive control at its GI50 concentration for AGS cell line.
"GI50 ([1]; Homo sapiens, NCI-H460, 48 h) [µM]","GI50 (breast carcinoma (MCF7); Homo sapiens, MCF7, 48 h) [µM]","GI50 ([2]; Homo sapiens, Caco-2, 48 h) [µM]",melting point [°C],"GI50 ([4]; Homo sapiens, 48 h) [µM]",High number of cells in apoptosis (expected from GI50 values) (AGS cells [5]),Structure (SMILES),Selectivity for CaCo-2 among the cell lines used ([2]; comparison of GI50 values),GI50 at 48 h [3] [µM],Cell death in apoptosis assay (AGS cells [5]; vs blank),Effect on G0/G1 phases of AGS cell cycle (AGS cells [6]),Effect on G2/M phase of AGS cell cycle (AGS cells [6]),Selectivity for AGS among the cell lines used ([4]; comparison of GI50 values),GI50 [1] [µM],GI50 (breast carcinoma (MCF7)) [µM],GI50 [2] [µM],GI50 [4] [µM]
122 ± 9,97 ± 2,38 ± 2,154 to 156,95 ± 9,–,"COC(=O)c1sc2nccnc2c1Nc1ccccc1 [2a, Methyl 7-(Phenylamino)thieno[2,3-b]pyrazine-6-carboxylate]",–,120 ± 6,–,–,–,–,–,–,–,–
122 ± 11,116 ± 5,45 ± 3,150 to 152,63.3 ± 0.1,–,"COC(=O)c1sc2nccnc2c1Nc1cccnc1 [2l, Methyl 7-[(Pyridin-3-yl)amino]thieno[2,3-b]pyrazine-6-carboxylate]",–,110 ± 5,–,–,–,–,–,–,–,–
69 ± 7,96 ± 6,142 ± 11,–,86 ± 6,–,"COC(=O)c1sc2nccnc2c1Nc1cccc(F)c1 [2j, Methyl 7-[(3-Fluorophenyl)amino]thieno[2,3-b]pyrazine-6-carboxylate]",–,149 ± 4,–,–,–,–,–,–,–,–

# The remaining lines, values behind:
Structure (SMILES),"GI50 ([1]; Homo sapiens, NCI-H460, 48 h) [µM]","GI50 (breast carcinoma (MCF7); Homo sapiens, MCF7, 48 h) [µM]","GI50 ([2]; Homo sapiens, Caco-2, 48 h) [µM]",melting point [°C],"GI50 ([4]; Homo sapiens, 48 h) [µM]",High number of cells in apoptosis (expected from GI50 values) (AGS cells [5]),Selectivity for CaCo-2 among the cell lines used ([2]; comparison of GI50 values),GI50 at 48 h [3] [µM],Cell death in apoptosis assay (AGS cells [5]; vs blank),Effect on G0/G1 phases of AGS cell cycle (AGS cells [6]),Effect on G2/M phase of AGS cell cycle (AGS cells [6]),Selectivity for AGS among the cell lines used ([4]; comparison of GI50 values),GI50 [1] [µM],GI50 (breast carcinoma (MCF7)) [µM],GI50 [2] [µM],GI50 [4] [µM]
"COC(=O)c1sc2nccnc2c1Nc1ccc(C#N)cc1 [2n, Methyl 7-[(4-Cyanophenyl)amino]thieno[2,3-b]pyrazine-6-carboxylate]",105 ± 8,103 ± 2,10.9 ± 0.4,214 to 216,39 ± 3,–,selective for this cell line; also recorded: selective against CaCo-2 cell line,48 ± 4,–,–,–,–,–,–,–,–
"COC(=O)c1sc2nccnc2c1Nc1cc(OC)c(OC)c(OC)c1 [2h, Methyl 7-[(3,4,5-Trimethoxyphenyl)amino]thieno[2,3-b]pyrazine-6-carboxylate]",77 ± 6,105.7 ± 0.5,9.2 ± 0.3,–,33 ± 3,–,–,53 ± 5,–,–,–,–,–,–,–,–
"COC(=O)c1sc2nccnc2c1-n1cccc1 [2m, Methyl 7-(1H-pyrrol-1-yl)thieno[2,3-b]pyrazine-6-carboxylate]",49 ± 2,128 ± 2,43.3 ± 0.3,166 to 168,88.6 ± 0.1,–,–,140 ± 12,–,–,–,–,–,–,–,–
"COC(=O)c1sc2nccnc2c1Nc1ccccc1OC [2b, Methyl 7-[(2-Methoxyphenyl)amino]thieno[2,3-b]pyrazine-6-carboxylate]",45 ± 1,127 ± 9,36 ± 2,–,9.8 ± 0.2,not verified,–,21.29 ± 0.03,moderated cell death compared to the blank,"cell cycle arrest in G0/G1 phases, although this result was not statistically significant",did not present any difference in the percentage of cells compared to the blank,selective for this cell line,–,–,–,–
"Cc1c2ccncc2c(C)c2c1[nH]c1ccccc12 [Ellipticine, reference compound]",≤ 1,≤ 1,≤ 1,–,≤ 1,–,–,0.6 ± 0.1,–,–,–,–,1.01 ± 0.01,1.02 ± 0.004,0.8 ± 0.1,0.9 ± 0.1

# Reference: article PMC8400120, “Synthesis of Novel Methyl 7-[(Hetero)arylamino]thieno[2,3-b]pyrazine-6-carboxylates and Antitumor Activity Evaluation: Effects in Human Tumor Cells Growth, Cell Cycle Analysis, Apoptosis and Toxicity in Non-Tumor Cells” (Molecules, 2021)
